Measurements: patent publication US20100227853A1, “INHIBITORS OF CYCLIC AMP PHOSPHODIESTERASES” (Trustees of Boston College, priority 2008, published 2010)
Where two headings read alike, the source gives them in different places.

Experiments:
PDE4B2 [1] = target: T1, PDE4B2 (Homo sapiens, UniProt Q07343); test: 5FOA growth assay in fission yeast strain expressing PDE4B2; type: cell-based; design: targets used in the assays are full-length proteins (as opposed to simply the catalytic domain); expressed in transfected cells; host or cells: Schizosaccharomyces pombe; conditions: OD600 0.6
Protocol: (§1) Cells were pregrown in EMM medium [MP Biomedicals (Solon, Ohio), 3% glucose, filter-sterilized to avoid carmelization, which would introduce variability into the optical density of the medium] containing from 0 mM to 2.5 mM cAMP (or either 0.5 mM or 1.0 mM cGMP). This was to repress expression of the fbp1-ura4 reporter prior to exposure of cells to 5FOA medium. Cells were grown at 30° C. to exponential phase (approximately 10^7 cells/ml). […] Starting cell concentrations ranged from 0.5×10^5 to 4×10^5 cells/ml depending on the screening strain. […] Other positive control dishes contained 5 mM cAMP in the 5FOA medium for PDEs that lack appropriate control compounds. Cultures were grown for 48 hours at 30° C., sealed in an airtight container with moist paper towels to prevent evaporation. Optical densities (OD600) of cultures were measured using a microplate reader. Bioinformatic analysis of the results to determine composite Z scores was performed as previously described (1, 3).

PDE4D2 = target: T2, PDE4D2 (Homo sapiens, UniProt Q08499); test: 5FOA growth assay in fission yeast strain expressing PDE4D2; type: cell-based; conditions: OD600 0.6; read-out: ED50 for 5FOA growth assays, PDE4D2
T2 construct: targets used in the assays are full-length proteins (as opposed to simply the catalytic domain); expressed in transfected cells; host or cells: Schizosaccharomyces pombe
Protocol: as §1

PDE4D3 = target: T3, PDE4D3 (Homo sapiens, UniProt Q08499); test: cAMP response in yeast strain expressing PDE4D3; type: cell-based
T3 construct: targets used in the assays are full-length proteins (as opposed to simply the catalytic domain); expressed in transfected cells; host or cells: Schizosaccharomyces pombe, PDE gene integrated in place of cgs2

PDE4A10 = target: T4, PDE4A10 (Homo sapiens, UniProt P27815); test: in vitro enzyme assay, E. coli expressed and purified PDE4A10; type: biochemical; conditions: read-out: IC50 (or AC200), PDE4A10
T4 construct: made in house; host or cells: E. coli

PDE4D2-CAT = target: T5, PDE4D2-CAT (Homo sapiens, UniProt Q08499); test: in vitro enzyme assay, catalytic fragment of PDE4D2 (residues 86-413); type: biochemical; conditions: catalytic fragment; AC200 = [Compound] that doubles PDE activity; read-out: IC50 (or AC200), PDE4D2-CAT
T5 construct: 86-413; made in house; host or cells: E. coli

PDE4D2-FL = target: T6, PDE4D2-FL (Homo sapiens, UniProt Q08499); test: in vitro enzyme assay, full-length PDE4D2 (residues 1-507); type: biochemical; conditions: read-out: IC50 (or AC200), PDE4D2-FL
T6 construct: 1-507; made in house; host or cells: E. coli

PDE4B2 [2] = target: T1, PDE4B2; test: in vitro enzyme assay, E. coli expressed and purified PDE4B2; type: biochemical; design: targets used in the assays are full-length proteins (as opposed to simply the catalytic domain); conditions: read-out: IC50 (or AC200), PDE4B2
PDE4A = PDE4A (Homo sapiens, UniProt P27815); test: in vitro enzyme assay PDE4A (Table 7); type: biochemical; conditions: 2 micromolar compound; read-out: percent of PDE activity present, PDE4A
PDE4B = PDE4B (Homo sapiens, UniProt Q07343); test: in vitro enzyme assay PDE4B (Table 7); type: biochemical; conditions: 2 micromolar compound; read-out: percent of PDE activity present, PDE4B
PDE4D = PDE4D (Homo sapiens, UniProt Q08499); test: in vitro enzyme assay PDE4D (Table 7); type: biochemical; conditions: 2 micromolar compound; read-out: percent of PDE activity present, PDE4D
PDE7A = PDE7A (Homo sapiens, UniProt Q13946); test: in vitro enzyme assay PDE7A; type: biochemical; design: made in house; host or cells: E. coli; conditions: 2 micromolar compound; read-out: percent of PDE activity present, PDE7A
Sequence of PDE7A (Q13946 whole entry): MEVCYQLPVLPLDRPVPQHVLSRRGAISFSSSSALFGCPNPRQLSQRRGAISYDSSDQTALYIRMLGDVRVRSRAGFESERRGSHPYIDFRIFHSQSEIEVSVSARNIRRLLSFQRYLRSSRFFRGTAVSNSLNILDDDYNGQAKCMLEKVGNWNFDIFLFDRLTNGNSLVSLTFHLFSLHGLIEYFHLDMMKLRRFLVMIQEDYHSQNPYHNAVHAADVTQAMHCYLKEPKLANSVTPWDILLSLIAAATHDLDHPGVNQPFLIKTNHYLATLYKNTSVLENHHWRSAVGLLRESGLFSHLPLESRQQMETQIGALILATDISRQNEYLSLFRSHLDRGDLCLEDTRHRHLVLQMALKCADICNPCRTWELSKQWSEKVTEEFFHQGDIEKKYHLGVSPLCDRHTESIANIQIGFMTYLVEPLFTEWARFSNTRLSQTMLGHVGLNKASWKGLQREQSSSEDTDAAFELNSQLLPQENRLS

T1 sequence (Q07343 1-564 isoform Q07343-2, species assumed): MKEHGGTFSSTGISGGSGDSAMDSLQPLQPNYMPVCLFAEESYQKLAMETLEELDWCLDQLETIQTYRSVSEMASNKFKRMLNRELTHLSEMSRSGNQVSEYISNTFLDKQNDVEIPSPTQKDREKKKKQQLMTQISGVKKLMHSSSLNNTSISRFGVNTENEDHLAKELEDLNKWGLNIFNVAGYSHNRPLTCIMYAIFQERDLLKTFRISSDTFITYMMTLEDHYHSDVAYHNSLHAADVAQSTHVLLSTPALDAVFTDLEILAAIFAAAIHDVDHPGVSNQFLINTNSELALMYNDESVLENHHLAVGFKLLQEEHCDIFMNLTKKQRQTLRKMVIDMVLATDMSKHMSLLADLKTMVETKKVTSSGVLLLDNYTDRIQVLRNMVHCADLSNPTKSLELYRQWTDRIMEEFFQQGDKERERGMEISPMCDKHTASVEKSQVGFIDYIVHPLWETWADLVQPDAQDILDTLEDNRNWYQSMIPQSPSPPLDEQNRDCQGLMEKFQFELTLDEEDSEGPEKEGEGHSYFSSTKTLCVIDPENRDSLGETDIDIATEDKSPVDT
T3 sequence (Q08499 1-673 isoform Q08499-2): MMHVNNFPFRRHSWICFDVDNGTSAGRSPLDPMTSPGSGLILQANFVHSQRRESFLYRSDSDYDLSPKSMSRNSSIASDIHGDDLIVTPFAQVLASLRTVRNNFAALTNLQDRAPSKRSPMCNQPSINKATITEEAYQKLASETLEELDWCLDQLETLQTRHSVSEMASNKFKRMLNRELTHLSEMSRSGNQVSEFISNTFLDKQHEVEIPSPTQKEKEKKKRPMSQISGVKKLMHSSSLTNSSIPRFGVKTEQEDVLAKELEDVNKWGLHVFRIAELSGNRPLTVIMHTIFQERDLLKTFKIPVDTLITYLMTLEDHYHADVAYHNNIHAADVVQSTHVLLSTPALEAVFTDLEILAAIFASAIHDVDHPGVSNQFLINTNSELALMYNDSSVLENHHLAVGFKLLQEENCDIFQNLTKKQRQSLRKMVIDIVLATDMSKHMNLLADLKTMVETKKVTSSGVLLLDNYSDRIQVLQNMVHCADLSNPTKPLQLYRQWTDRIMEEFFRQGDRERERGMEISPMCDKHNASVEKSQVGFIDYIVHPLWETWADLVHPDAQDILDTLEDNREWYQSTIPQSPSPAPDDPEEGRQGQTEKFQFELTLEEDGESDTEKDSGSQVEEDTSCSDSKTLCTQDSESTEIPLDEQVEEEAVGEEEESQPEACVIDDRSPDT
T2 sequence (Q08499 303-809): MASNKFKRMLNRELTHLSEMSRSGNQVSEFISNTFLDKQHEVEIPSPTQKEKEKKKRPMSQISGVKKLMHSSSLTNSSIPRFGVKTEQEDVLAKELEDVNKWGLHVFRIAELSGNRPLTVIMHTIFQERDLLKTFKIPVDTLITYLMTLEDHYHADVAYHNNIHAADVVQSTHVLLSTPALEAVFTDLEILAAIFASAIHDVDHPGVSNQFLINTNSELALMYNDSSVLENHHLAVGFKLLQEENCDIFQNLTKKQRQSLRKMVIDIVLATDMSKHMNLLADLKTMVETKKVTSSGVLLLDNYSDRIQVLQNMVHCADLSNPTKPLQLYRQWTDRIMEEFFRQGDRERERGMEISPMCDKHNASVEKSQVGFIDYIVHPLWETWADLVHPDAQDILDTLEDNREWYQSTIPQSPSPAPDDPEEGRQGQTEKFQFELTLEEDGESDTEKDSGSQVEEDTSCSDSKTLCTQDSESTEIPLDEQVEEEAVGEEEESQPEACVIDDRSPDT
Sequence of PDE4D (Q08499 whole entry): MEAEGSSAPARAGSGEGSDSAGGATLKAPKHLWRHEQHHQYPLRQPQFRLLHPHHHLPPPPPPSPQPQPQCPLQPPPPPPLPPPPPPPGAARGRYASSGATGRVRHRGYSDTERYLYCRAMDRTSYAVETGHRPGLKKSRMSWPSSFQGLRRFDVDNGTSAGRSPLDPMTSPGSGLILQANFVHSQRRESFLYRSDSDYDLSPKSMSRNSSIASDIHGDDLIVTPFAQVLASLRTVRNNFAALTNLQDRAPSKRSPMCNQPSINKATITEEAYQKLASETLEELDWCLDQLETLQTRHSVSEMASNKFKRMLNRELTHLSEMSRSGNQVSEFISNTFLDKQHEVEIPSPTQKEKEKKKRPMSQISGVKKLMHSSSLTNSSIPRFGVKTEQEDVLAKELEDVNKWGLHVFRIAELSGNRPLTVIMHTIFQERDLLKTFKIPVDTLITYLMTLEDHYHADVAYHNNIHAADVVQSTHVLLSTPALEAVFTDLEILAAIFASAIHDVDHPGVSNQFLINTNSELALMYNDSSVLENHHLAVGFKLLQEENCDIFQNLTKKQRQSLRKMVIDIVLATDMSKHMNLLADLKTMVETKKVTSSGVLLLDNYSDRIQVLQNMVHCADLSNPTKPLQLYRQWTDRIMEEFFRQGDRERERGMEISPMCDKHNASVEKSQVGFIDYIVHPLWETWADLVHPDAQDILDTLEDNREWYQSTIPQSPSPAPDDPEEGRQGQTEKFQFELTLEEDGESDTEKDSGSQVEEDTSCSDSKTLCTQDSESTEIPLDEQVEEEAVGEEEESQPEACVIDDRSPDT
T6 sequence (Q08499 303-809): as the sequence (Q08499 303-809) above
T4 sequence (P27815 1-825 isoform P27815-6, species assumed): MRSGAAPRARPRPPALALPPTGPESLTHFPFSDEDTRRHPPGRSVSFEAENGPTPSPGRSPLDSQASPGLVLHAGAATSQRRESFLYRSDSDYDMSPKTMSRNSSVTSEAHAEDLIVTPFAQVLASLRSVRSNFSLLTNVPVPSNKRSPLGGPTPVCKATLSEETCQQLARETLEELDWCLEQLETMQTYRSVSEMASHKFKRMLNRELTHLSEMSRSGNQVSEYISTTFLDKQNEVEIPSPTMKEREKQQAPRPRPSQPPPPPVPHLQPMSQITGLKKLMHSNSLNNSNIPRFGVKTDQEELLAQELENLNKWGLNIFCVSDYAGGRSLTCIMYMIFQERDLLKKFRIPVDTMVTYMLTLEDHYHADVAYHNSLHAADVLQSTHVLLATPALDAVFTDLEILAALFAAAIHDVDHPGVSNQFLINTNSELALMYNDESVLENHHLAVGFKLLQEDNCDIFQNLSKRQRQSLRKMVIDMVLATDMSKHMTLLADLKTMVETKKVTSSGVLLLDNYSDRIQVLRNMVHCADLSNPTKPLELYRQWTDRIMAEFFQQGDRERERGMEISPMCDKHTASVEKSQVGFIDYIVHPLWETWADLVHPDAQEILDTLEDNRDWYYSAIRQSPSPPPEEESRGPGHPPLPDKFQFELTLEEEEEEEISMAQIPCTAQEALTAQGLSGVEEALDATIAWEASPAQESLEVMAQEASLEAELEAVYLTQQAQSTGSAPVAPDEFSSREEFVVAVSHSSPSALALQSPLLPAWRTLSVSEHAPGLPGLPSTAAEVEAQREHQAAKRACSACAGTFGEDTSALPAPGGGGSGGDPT
T5 sequence (Q08499 388-715): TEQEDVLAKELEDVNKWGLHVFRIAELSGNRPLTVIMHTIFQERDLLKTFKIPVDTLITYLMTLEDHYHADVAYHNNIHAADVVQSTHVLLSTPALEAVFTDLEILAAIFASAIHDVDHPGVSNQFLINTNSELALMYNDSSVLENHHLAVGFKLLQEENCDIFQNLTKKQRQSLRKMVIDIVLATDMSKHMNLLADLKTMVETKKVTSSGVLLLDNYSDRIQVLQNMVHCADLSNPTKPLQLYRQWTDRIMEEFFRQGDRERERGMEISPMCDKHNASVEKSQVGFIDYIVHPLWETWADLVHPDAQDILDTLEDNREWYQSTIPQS
Sequence of PDE4B (Q07343 whole entry, species assumed): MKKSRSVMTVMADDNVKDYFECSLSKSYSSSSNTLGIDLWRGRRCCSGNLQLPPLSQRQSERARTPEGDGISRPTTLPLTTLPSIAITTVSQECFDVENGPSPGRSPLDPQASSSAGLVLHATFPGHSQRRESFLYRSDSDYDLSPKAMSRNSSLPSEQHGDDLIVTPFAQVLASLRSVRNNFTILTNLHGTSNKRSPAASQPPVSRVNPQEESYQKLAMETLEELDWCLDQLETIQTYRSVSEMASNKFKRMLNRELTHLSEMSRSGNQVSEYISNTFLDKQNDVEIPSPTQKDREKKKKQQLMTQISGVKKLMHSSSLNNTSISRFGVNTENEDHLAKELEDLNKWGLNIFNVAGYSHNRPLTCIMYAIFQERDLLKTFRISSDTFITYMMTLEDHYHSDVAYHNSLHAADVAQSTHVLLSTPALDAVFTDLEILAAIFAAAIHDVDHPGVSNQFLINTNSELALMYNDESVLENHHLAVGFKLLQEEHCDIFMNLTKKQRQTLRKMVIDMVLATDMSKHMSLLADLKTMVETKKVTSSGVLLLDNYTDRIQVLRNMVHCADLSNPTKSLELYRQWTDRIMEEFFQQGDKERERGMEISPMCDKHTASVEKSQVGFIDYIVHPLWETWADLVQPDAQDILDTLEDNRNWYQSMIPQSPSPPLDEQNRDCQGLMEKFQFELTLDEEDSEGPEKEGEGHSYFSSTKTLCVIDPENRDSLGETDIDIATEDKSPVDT

CCC1CCc2c(sc3ncnc(N4CCOCC4)c23)C1 (centres unmarked) [BC33]
EC50 (PDE4B2 [1]; value marked (m), read-out: ED50 for 5FOA growth assays, PDE4B2 (m)): 1700 nM

CCN(CC)c1ncnc2sc3c(c12)CCCC3 [BC44]
EC50 (PDE4D2): 140000 nM

Cc1sc2ncnc(Nc3ccccc3)c2c1C [BC64]
EC50 (PDE4D2): > 200000 nM
EC50 (PDE4B2 [1]; read-out: ED50 for 5FOA growth assays, PDE4B2): > 200000 nM

COC(=O)C1=C(C)N(C2CCCCC2)C(=O)/C1=C\c1cccs1 [Compound 22]
cAMP Response (% rolipram), 4D3 (PDE4D3): 12.00 % rolipram

COC(=O)C1=C(C)N(c2ccccc2Cl)C(=O)/C1=C\c1cccs1 [Compound 27]
cAMP Response (% rolipram), 4D3 (PDE4D3): 8.00 % rolipram

N#Cc1sc2sc(C#N)c(-c3ccco3)c2c1N [Compound 30]
IC50 (PDE4A10): > 2000 nM
IC50 (PDE4D2-CAT): < 100 nM
IC50 (PDE4D2-FL): > 2000 nM
IC50 (PDE4B2 [2]): ~2000 nM

Cc1c(C(=O)Nc2ccc(F)cc2F)sc2ncnc(N(C)c3ccccc3)c12 [Compound 58-9]
remaining activity at 2 µM (PDE4A): 84%
remaining activity at 2 µM (PDE4B): 72%
remaining activity at 2 µM (PDE4D): 77%
remaining activity at 2 µM (PDE7A): 52%
